Measured values published in patent publication US20100069304A1, “PROTECTIVE EFFECTS OF INHIBITING THE INTERACTION OF CALMODULIN AND MUTANT HUNTINGTIN PROTEIN” (priority 2008, published 2010).
“Also recorded” adds a separate entry of the source.

Experiments:
TGase = TGase activity in mouse striatal homogenates; format: in vivo; details: 500 μM GTPγS, all mouse groups
Experimental: TGase II Activity Assay. TGase activity was measured by detecting the incorporation of a biotinylated TGase amine substrate, 5-(biotinamido)pentylamine (Pierce, Rockford, Ill.) into N,N'-dimethylcasein (Calbiochem, San Diego, Calif.) as previously described (Dudek et al., 2009). 96-well Immulon 4 HBX plates (Dynatech, Franklin, Mass.) were coated with 100 μl of N,N′-dimethylcasein (20 mg/ml) in 0.05M sodium bicarbonate, and stored at 4° C. overnight. After the unbound N,N′-dimethylcasein was discarded, the plate was washed with PBS and blocked with nonfat dry milk (2% milk in PBS) for 1 hour at 37° C., followed by 3 washes with PBS. Striatum from the various mice were homogenized in 0.1 M Tris-HCl pH 8.3, 1 mM EDTA, 1 mM PMSF, and protease inhibitor cocktail. Striatal homogenates (15 μg of protein/sample) were added to the plate with 0.1 M Tris-HCl pH 8.5, 0.15 M NaCl, 5 mM DTT, 0.5 mM biotin-labeled pentylamine, and 5 mM CaCl2. The mixture was incubated for 1 hour at 37° C. The plate was washed with TBS and 0.001% Tween followed by incubation with streptavidin conjugated to HRP (Jackson ImmunoResearch, West Grove, Pa.) for 1 hour at room temperature. […] Then the reaction was stopped with 3N sulfuric acid and the absorbance was read at 450 nm. […] Each sample was measured in triplicate.

transglutaminase = assay: In situ transglutaminase assay in intact cells; format: cell-based, human; details: SHSY5Y-htt-N63-148Q cells
Experimental: In situ transglutaminase assay. In this in situ assay, transglutaminase activity is measured in intact cells via incorporation of a polyamine and the presence of the transglutaminase-catalyzed bond. Forty-two hours post viral infection, cells were treated with 2 mM 5-(biotinamido)pentylamine, a biotinylated polyamine (Pierce, Rockford, Ill.), and 6 hours post polyamine treatment, cells were harvested and lysed in 0.1 M Tris-HCl pH 8.3, 1 mM EDTA, 1 mM PMSF, and protease inhibitor cocktail. 96-well Immulon 4 HBX plates (Dynatech, Franklin, Mass.) were coated with anti-ε-(γ-glutamyl)lysine (81D4) antibody (CovalAb, Lyon, France) in 0.1 M Na2HPO4.7 H2O pH 9 overnight at 4° C. Then the plates were washed with PBS and blocked with 2% milk in PBS for 1 hour at room temperature, followed by 3 washes with PBS with 0.0375% Tween. Cell lysates (50 μg of protein/sample/well) were added to the wells in triplicates and incubated for 1 hour at 37° C. The plate was washed with PBS and 0.0375% Tween, followed by incubation with streptavidin conjugated to HRP (Jackson ImmunoResearch, West Grove, Pa.) for 1 hour at room temperature. After final washes, a 1×TMB substrate solution (eBioscience, SanDiego, Calif.) was added and color was allowed to develop for 5-10 minutes. The reaction was stopped with 3 N sulfuric acid and the absorbance was read at 450 nm.

[1] = biological target: T1, htt-exon1-44Q binding to CaM (Homo sapiens, UniProt P42858, INS38QQQQQQQQQQQQQQQQQQQQQQQ); assay: In vitro mutant huntingtin-calmodulin binding (calmodulin-agarose)
T1 construct: encoding exon 1 of huntingtin with 44 glutamine residues; MBP; host or cells: Escherichia coli

HD transgenic mice = details: cited from earlier work
[2] = tested on: cells expressing mutant huntingtin and TG; details: cited from earlier work
[3] = biological target: T2, mutant huntingtin (htt-N63-148Q) (Homo sapiens, UniProt P42858, INS26QQQQQQQQQQ/INS27QQQQQQQQQQ/INS28QQQQQQQQQQ/INS29QQQQQQQQQQ/INS30QQQQQQQQQQ/INS31QQQQQQQQQQ/INS32QQQQQQQQQQ/INS33QQQQQQQQQQ/INS34QQQQQQQQQQ/INS35QQQQQQQQQQ/INS36QQQQQQQQQQ/INS37QQQQQQQQQQ/INS38QQQQQQQ); assay: TG-modified huntingtin (81D4 immunoprecipitation and immunoblot) in transfected HEK-293T cells; format: cell-based; details: HEK-293T cells with htt-N63-148Q, TG2 and CaM construct vs vector control
T2 construct: myc; expressed in transfected cells; host or cells: HEK-293T
T2 sequence (P42858 with tags, fused parts or gaps limits assumed, stated change not applied): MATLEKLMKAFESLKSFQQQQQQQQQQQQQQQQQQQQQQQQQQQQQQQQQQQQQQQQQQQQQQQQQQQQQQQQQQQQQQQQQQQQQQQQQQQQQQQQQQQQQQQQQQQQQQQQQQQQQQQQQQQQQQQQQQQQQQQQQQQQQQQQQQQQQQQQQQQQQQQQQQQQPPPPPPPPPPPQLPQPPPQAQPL
Experimental: HEK-293T cells were grown in OptiMEM reduced serum medium (Invitrogen, Carlsbad, Calif.) containing nonessential amino acids, antimycotic and antibiotic agents, and 10% FBS, in the presence of 5% CO2 at 37° C. Cells were grown to 80-90% confluency and transfected using Lipofectamine Plus (Invitrogen, Carlsbald, Calif.). […] Forty-eight hours after transfection, cells were harvested and resuspened in lysis buffer containing 50 mM Tris-HCl, pH 8.8, 100 mM NaCl, 5 mM MgCl2, 0.05% NP-40, 1 mM EDTA (Tang T S, Tu H, Chan E Y, et al. Huntingtin and huntingtin-associated protein 1 influence neuronal calcium signaling mediated by inositol-(1,4,5)triphosphate receptor type 1. Neuron 2003;39:227-239) and 1:1,000 protease inhibitor mixture (Sigma, St. Louis, Mo.). […]
Immunoblots. […] Signal was detected using enhanced chemiluminescence (ECL) Western blotting detection reagents (Amersham Biosciences, Piscataway, N.J.). Immunoblots were quantified by calculating the sum of the densities of all of the pixels within each protein band as the integrated optical density (IOD), using Scion Image for Windows (Scion, Frederick, Md.). Film background IOD was measured and subtracted from each band IOD. Measurements were done in triplicate and the mean was calculated.

T1 sequence (P42858 with tags, fused parts or gaps with the stated changes limits assumed): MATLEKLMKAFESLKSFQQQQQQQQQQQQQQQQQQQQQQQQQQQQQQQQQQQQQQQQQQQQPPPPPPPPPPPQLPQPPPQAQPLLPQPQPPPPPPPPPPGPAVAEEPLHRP

Compound: Nc1nc2c(ncn2[C@@H]2O[C@H](COP(=O)(O)OP(=O)(O)OP(O)(O)=S)[C@@H](O)[C@H]2O)c(=O)[nH]1 [GTPγS]
- reduction of TGase activity (TGase): at least 60%

Compound: GDTVEREKDAYNSLEGFDNTIHTLRADIGMVEEVAKSKRDEEFLE [scram-CaM-peptide]
- total TG activity in situ between infections (transglutaminase): no significant difference in total TG activity

Compound: Cl.NCCCCCCNS(=O)(=O)c1cccc2ccccc12 [W-5, N-(6-Aminohexyl)-1-naphthalenesulfonamide hydrochloride]
- amount of CaM-bound htt-exon1-44Q ([1]; 664 μM W-5 along with 10 μM of CaM-peptide): significantly increased
- amount of CaM-bound htt-exon1-44Q ([1]; W-5 alone): did not affect the amount of CaM-bound htt-exonl-44Q

Compound: NCCSSCCN [cystamine]
- survival (HD transgenic mice): increase survival
- cell survival [2]: increased cell survival
- cross-linking of huntingtin [2]: decreased the cross-linking of huntingtin

Compound: CaM-N-term: calmodulin fragment: first 76 amino acids, contains the first two Ca2+ binding sites
- TG-modified huntingtin compared to control cells (in words) [3]: no significant decrease in TG-modified huntingtin, but rather an increase; also recorded: did not reduce the TG-catalyzed modifications of huntingtin
